Measurements reported in patent US20170071976A1, “PHARMACEUTICAL SOLUTION HAVING ANTI-TUMOR EFFECT-ENHANCING AND TOXICITY-REDUCING EFFECT, AND PHARMACEUTICAL COMPOSITION COMPRISING SAME” (priority 2014, published 2017).

Columns and labels:
Assay in all cases: MTT assay: in vitro inhibition of growth by deuterium oxide
Assay type in all cases: cell-based, human
[1] = tested on: SKOV3 ovarian cancer cell line
Experimental: (§1) Studies of in vitro inhibition of growth of human tumor cells by deuterium oxide, by the MTT (3-(4,5-dimethylthiazol-2-yl)-2,5-diphenyltetrazolium bromide) assay
(§2) 1. A bottle of cells that had been cultured for 3 to 4 days and were in the exponential phase was taken, a suitable amount of 0.25% Trypsin-EDTA solution was added thereto to detach the cells from the wall, and the cells were suspended in 10 ml RPMI 1640 medium containing 10% FBS. 2. The cells were counted on a hemocytometer, and generally viable cells should be not less than 97%. 3. The cell suspension was diluted with a complete medium to prepare a suspension containing 1×10^4 cells/ml. 4. To each well of a 12-well culture plate, 300 μl cell suspension was added. The addition of cells should be finished within 4 hours. The plate was placed in an incubator at 37° C. and 5% CO2 for 24 hours. 5. Powdery RPMI Medium 1640 (Gibco, USA, Cat#: 31800-022) was dissolved in deuterium oxide (provided by Cambridge Isotope Laboratories, Inc. (US)) to prepare a cell culture medium (unless particularly specified, all culture media used in the Examples hereinafter were prepared from powdery RPMI Medium 1640 and deuterium oxide) at a concentration shown in Table 1, which was added into the cell culture plate. 6. The cell culture plate was incubated for 3 days in an incubator at 37° C., 5% CO2 and 100% humidity. 7. A solution of 1 mg/ml MTT was prepared in a serum-free RPMI1640 medium, added to the plate at 200 μl/well, and incubated at 37° C. for 4 hours, to allow MTT to be reduced to formazan. 8. The supernatant was removed by pipetting, 200 μl DMSO was added to dissolve formazan, and the solution was well mixed on a platform shaker. 9. Absorbance of each well was measured on an ELISA reader with a detection wavelength of 570 nm and a reference wavelength of 450 nm. 10. The assay was repeated one more time.
(§3) Calculation of results: Inhibition of growth of tumor cells by deuterium oxide was calculated using tumor cells treated with sodium chloride physiological solution as a control group. Inhibition of cell growth was plotted against amounts of deuterium oxide to obtain a dose response curve, from which the half maximal inhibitory concentration (IC50) of deuterium oxide was derived.
(§4) Inhibition of tumor cell growth (%)=(1−OD test/OD control)×100%

[2] = tested on: HCT-116 colon cancer cell line
Experimental: as §1, §2, §3, §4

[3] = tested on: 5637 bladder cancer cell line
Experimental: as §1, §2, §3, §4

[4] = tested on: PANC-1 pancreatic cancer cell line
Experimental: as §1, §2, §3, §4

[5] = tested on: MCF-7 breast cancer cell line
Experimental: as §1, §2, §3, §4

[6] = tested on: SF767 brain cancer cell line
Experimental: as §1, §2, §3, §4

[7] = tested on: CFPAC-1 pancreatic cancer cell line
Experimental: as §1, §2, §3, §4

[8] = tested on: ASPC-1 pancreatic cancer cell line
Experimental: as §1, §2, §3, §4

[2H]O[2H] [Deuterium oxide]
Inhibition of growth (%) ([1]; deuterium oxide 1.2% (v/v)): 1.82%
Inhibition of growth (%) ([1]; deuterium oxide 2.5% (v/v)): 7.35%
Inhibition of growth (%) ([1]; deuterium oxide 5% (v/v)): 8.33%
Inhibition of growth (%) ([1]; deuterium oxide 10% (v/v)): 9.65%
Inhibition of growth (%) ([1]; deuterium oxide 20% (v/v)): 12.64%
Inhibition of growth (%) ([1]; deuterium oxide 30% (v/v)): 16.69%
Inhibition of growth (%) ([1]; deuterium oxide 40% (v/v)): 32.76%
Inhibition of growth (%) ([1]; deuterium oxide 50% (v/v)): 41.80%
Inhibition of growth (%) ([1]; deuterium oxide 60% (v/v)): 59.84%
Inhibition of growth (%) ([1]; deuterium oxide 70% (v/v)): 74.07%
Inhibition of growth (%) ([1]; deuterium oxide 80% (v/v)): 90.42%
Inhibition of growth (%) ([2]; deuterium oxide 1.2% (v/v)): 11.81%
Inhibition of growth (%) ([2]; deuterium oxide 2.5% (v/v)): 31.55%
Inhibition of growth (%) ([2]; deuterium oxide 5% (v/v)): 21.64%
Inhibition of growth (%) ([2]; deuterium oxide 10% (v/v)): 18.58%
Inhibition of growth (%) ([2]; deuterium oxide 20% (v/v)): 23.32%
Inhibition of growth (%) ([2]; deuterium oxide 30% (v/v)): 30.21%
Inhibition of growth (%) ([2]; deuterium oxide 40% (v/v)): 37.43%
Inhibition of growth (%) ([2]; deuterium oxide 50% (v/v)): 48.43%
Inhibition of growth (%) ([2]; deuterium oxide 60% (v/v)): 66.31%
Inhibition of growth (%) ([2]; deuterium oxide 70% (v/v)): 70.42%
Inhibition of growth (%) ([2]; deuterium oxide 80% (v/v)): 94.62%
IC10 ([2]; expressed in v/v %): 0.25%
IC50 ([2]; expressed in v/v %): 51.13%
Inhibition of growth (%) ([3]; deuterium oxide 1.2% (v/v)): 0.84%
Inhibition of growth (%) ([3]; deuterium oxide 2.5% (v/v)): −3.09%
Inhibition of growth (%) ([3]; deuterium oxide 5% (v/v)): 10.44%
Inhibition of growth (%) ([3]; deuterium oxide 10% (v/v)): 16.15%
Inhibition of growth (%) ([3]; deuterium oxide 20% (v/v)): 25.56%
Inhibition of growth (%) ([3]; deuterium oxide 30% (v/v)): 36.69%
Inhibition of growth (%) ([3]; deuterium oxide 40% (v/v)): 44.32%
Inhibition of growth (%) ([3]; deuterium oxide 50% (v/v)): 52.11%
Inhibition of growth (%) ([3]; deuterium oxide 60% (v/v)): 59.76%
Inhibition of growth (%) ([3]; deuterium oxide 70% (v/v)): 74.86%
Inhibition of growth (%) ([3]; deuterium oxide 80% (v/v)): 88.43%
IC10 ([3]; expressed in v/v %): 4.46%
IC50 ([3]; expressed in v/v %): 59.08%
Inhibition of growth (%) ([4]; deuterium oxide 1.2% (v/v)): 7.37%
Inhibition of growth (%) ([4]; deuterium oxide 2.5% (v/v)): 13.88%
Inhibition of growth (%) ([4]; deuterium oxide 5% (v/v)): 14.41%
Inhibition of growth (%) ([4]; deuterium oxide 10% (v/v)): 8.43%
Inhibition of growth (%) ([4]; deuterium oxide 20% (v/v)): 9.06%
Inhibition of growth (%) ([4]; deuterium oxide 30% (v/v)): 17.81%
Inhibition of growth (%) ([4]; deuterium oxide 40% (v/v)): 26.73%
Inhibition of growth (%) ([4]; deuterium oxide 50% (v/v)): 31.62%
Inhibition of growth (%) ([4]; deuterium oxide 60% (v/v)): 50.31%
Inhibition of growth (%) ([4]; deuterium oxide 70% (v/v)): 57.29%
Inhibition of growth (%) ([4]; deuterium oxide 80% (v/v)): 79.05%
IC10 ([4]; expressed in v/v %): 3.03%
IC50 ([4]; expressed in v/v %): 65.38%
Inhibition of growth (%) ([5]; deuterium oxide 1.2% (v/v)): 9.78%
Inhibition of growth (%) ([5]; deuterium oxide 2.5% (v/v)): 11.04%
Inhibition of growth (%) ([5]; deuterium oxide 5% (v/v)): 15.71%
Inhibition of growth (%) ([5]; deuterium oxide 10% (v/v)): 22.47%
Inhibition of growth (%) ([5]; deuterium oxide 20% (v/v)): 31.60%
Inhibition of growth (%) ([5]; deuterium oxide 30% (v/v)): 40.38%
Inhibition of growth (%) ([5]; deuterium oxide 40% (v/v)): 52.45%
Inhibition of growth (%) ([5]; deuterium oxide 50% (v/v)): 63.22%
Inhibition of growth (%) ([5]; deuterium oxide 60% (v/v)): 86.41%
Inhibition of growth (%) ([5]; deuterium oxide 70% (v/v)): 89.06%
Inhibition of growth (%) ([5]; deuterium oxide 80% (v/v)): 98.08%
IC10 ([5]; expressed in v/v %): 3.28%
IC50 ([5]; expressed in v/v %): 61.29%
Inhibition of growth (%) ([6]; deuterium oxide 1.2% (v/v)): 4.76%
Inhibition of growth (%) ([6]; deuterium oxide 2.5% (v/v)): 3.94%
Inhibition of growth (%) ([6]; deuterium oxide 5% (v/v)): −4.41%
Inhibition of growth (%) ([6]; deuterium oxide 10% (v/v)): −8.43%
Inhibition of growth (%) ([6]; deuterium oxide 20% (v/v)): 7.66%
Inhibition of growth (%) ([6]; deuterium oxide 30% (v/v)): 8.42%
Inhibition of growth (%) ([6]; deuterium oxide 40% (v/v)): 16.50%
Inhibition of growth (%) ([6]; deuterium oxide 50% (v/v)): 21.23%
Inhibition of growth (%) ([6]; deuterium oxide 70% (v/v)): 49.65%
Inhibition of growth (%) ([6]; deuterium oxide 80% (v/v)): 71.22%
IC10 ([6]; expressed in v/v %): 31.85%
IC50 ([6]; expressed in v/v %): 91.12%
Inhibition of growth (%) ([7]; deuterium oxide 1.2% (v/v)): 6.82%
Inhibition of growth (%) ([7]; deuterium oxide 2.5% (v/v)): 14.05%
Inhibition of growth (%) ([7]; deuterium oxide 5% (v/v)): 13.42%
Inhibition of growth (%) ([7]; deuterium oxide 10% (v/v)): 10.75%
Inhibition of growth (%) ([7]; deuterium oxide 20% (v/v)): 14.84%
Inhibition of growth (%) ([7]; deuterium oxide 30% (v/v)): 26.16%
Inhibition of growth (%) ([7]; deuterium oxide 40% (v/v)): 33.67%
Inhibition of growth (%) ([7]; deuterium oxide 50% (v/v)): 45.30%
Inhibition of growth (%) ([7]; deuterium oxide 60% (v/v)): 61.42%
Inhibition of growth (%) ([7]; deuterium oxide 70% (v/v)): 77.94%
Inhibition of growth (%) ([7]; deuterium oxide 80% (v/v)): 91.85%
IC10 ([7]; expressed in v/v %): 3.20%
IC50 ([7]; expressed in v/v %): 59.43%
Inhibition of growth (%) ([8]; deuterium oxide 1.2% (v/v)): 0.64%
Inhibition of growth (%) ([8]; deuterium oxide 2.5% (v/v)): 6.35%
Inhibition of growth (%) ([8]; deuterium oxide 5% (v/v)): −0.20%
Inhibition of growth (%) ([8]; deuterium oxide 10% (v/v)): −4.88%
Inhibition of growth (%) ([8]; deuterium oxide 20% (v/v)): −7.26%
Inhibition of growth (%) ([8]; deuterium oxide 30% (v/v)): 9.70%
Inhibition of growth (%) ([8]; deuterium oxide 40% (v/v)): 23.99%
Inhibition of growth (%) ([8]; deuterium oxide 50% (v/v)): 44.14%
Inhibition of growth (%) ([8]; deuterium oxide 60% (v/v)): 52.22%
Inhibition of growth (%) ([8]; deuterium oxide 70% (v/v)): 70.14%
Inhibition of growth (%) ([8]; deuterium oxide 80% (v/v)): 85.83%
IC10 ([8]; expressed in v/v %): 11.80%
IC50 ([8]; expressed in v/v %): 57.00%
